Source: ChEMBL document CHEMBL6153025, “Multidrug-resistant bacteria quorum-sensing inhibitors: A particular focus on Pseudomonasaeruginosa” (Eur J Med Chem, 2025)
≈ marks a conversion by molar mass, not a printed value. One block for each compound: values may come before it.

Key:
Pseudomonas aeruginosa [1] = assay: Antibiofilm activity against Pseudomonas aeruginosa ATCC 27853 assessed as reduction in biofilm biomass at 16 ug/ml relative to control; assay type: functional; design: scale not given: the % may be the effect or the level left; conditions: dose 16 µg/ml
Pseudomonas aeruginosa [2] = assay: Antimicrobial activity against Pseudomonas aeruginosa PAO1 assessed as inhibition of bacterial growth measured for 18 hrs by CLSI-based broth microdilution method; assay type: functional
Pseudomonas aeruginosa [3] = assay: Antibacterial activity against Pseudomonas aeruginosa PAO1-L; assay type: functional, organism-based
Pseudomonas aeruginosa [4] = assay: Antibiofilm activity against Pseudomonas aeruginosa ATCC 27853 assessed as reduction in biofilm formation at 10 uM relative to control; assay type: functional; design: scale not given: the % may be the effect or the level left
[5] = Inhibition of quorum sensing system in Pseudomonas aeruginosa PAO1 expressing lasB-gfp
Pseudomonas aeruginosa [6] = assay: Anti-virulence activity against Pseudomonas aeruginosa PAO1-L assessed as reduction in pyocyanin production at 10 uM incubated for 24 hrs by absorbance based analysis relative to control; assay type: functional; design: scale not given: the % may be the effect or the level left
Pseudomonas aeruginosa [7] = assay: Antibiofilm activity against Pseudomonas aeruginosa PAO1 assessed as inhibition of biofilm formation incubated for 24 hrs by crystal violet staining based assay; assay type: functional, organism-based; conditions: PAO1, 24 h
Pseudomonas aeruginosa [8] = assay: Antibacterial activity against Pseudomonas aeruginosa ATCC 27853 assessed as bacterial growth inhibition by agar diffusion assay; assay type: functional
Pseudomonas aeruginosa [9] = assay: Antibacterial activity against Pseudomonas aeruginosa ATCC 27853; assay type: functional, organism-based
Pseudomonas aeruginosa [10] = assay: Antibacterial activity against Pseudomonas aeruginosa ATCC 15442 assessed as reduction in bacterial cell growth incubated for 18 hrs by two fold serial microdilution method; assay type: functional
Pseudomonas aeruginosa [11] = assay: Antivirulence activity against Pseudomonas aeruginosa PAO1 assessed as inhibition of pyocyanin production at 16 ug/ml relative to control; assay type: functional; design: scale not given: the % may be the effect or the level left; conditions: dose 16 µg/ml
Pseudomonas aeruginosa [12] = assay: Antibiofilm activity against Pseudomonas aeruginosa ATCC 15442 assessed as inhibition of biofilm formation at 16 ug/ml relative to control; assay type: functional; design: scale not given: the % may be the effect or the level left; conditions: dose 16 µg/ml
[13] = Inhibition of quorum sensing system in Pseudomonas aeruginosa PAO1 expressing lasB-gfp at 16 uM relative to control
Pseudomonas aeruginosa [14] = assay: Antibacterial activity against Pseudomonas aeruginosa PAO1 assessed as reduction in bacterial growth by broth microdilution method; assay type: functional, organism-based
Pseudomonas aeruginosa [15] = assay: Downregulation of rhlA mRNA level in Pseudomonas aeruginosa PAO1 at 10 uM by RT-qPCR analysis; assay type: functional
[16] = Inhibition of quorum sensing system in Pseudomonas aeruginosa PAO1 expressing lasB-gfp assessed as inhibition of lasB expression at 50 ug/ml incubated for 8 hrs by microplate reader based analysis relative to control; conditions: dose 50.0 µg/ml
Pseudomonas aeruginosa [17] = assay: Antivirulence activity against Pseudomonas aeruginosa PAO1 assessed as inhibition of rhamnolipid production at 16 ug/ml relative to control; assay type: functional; design: scale not given: the % may be the effect or the level left; conditions: dose 16 µg/ml
Pseudomonas aeruginosa [18] = assay: Downregulation of pqsR mRNA expression in Pseudomonas aeruginosa PAO1; assay type: functional
Pseudomonas aeruginosa [19] = assay: Antibiofilm activity against Pseudomonas aeruginosa PAO1 assessed as inhibition of biofilm formation at 16 ug/ml incubated for 24 hrs by crystal violet staining based assay relative to control; assay type: functional; design: scale not given: the % may be the effect or the level left; conditions: dose 16 µg/ml
Pseudomonas aeruginosa [20] = assay: Antibacterial activity against Pseudomonas aeruginosa PAO1 by broth microdilution method; assay type: functional
Pseudomonas aeruginosa [21] = assay: Downregulation of pqsA mRNA expression in Pseudomonas aeruginosa PAO1; assay type: functional
Pseudomonas aeruginosa [22] = assay: Antibiofilm activity against Pseudomonas aeruginosa PAO1 assessed as inhibition of biofilm formation at 1 to 100 uM incubated for 24 hrs by crystal violet staining based assay relative to control; assay type: functional; design: scale not given: the % may be the effect or the level left; conditions: dose 1-100 µM
Pseudomonas aeruginosa [23] = assay: Antimicrobial activity against Pseudomonas aeruginosa assessed as reduction in microbial growth; assay type: functional, organism-based
Pseudomonas aeruginosa [24] = assay: Antibiofilm activity against Pseudomonas aeruginosa assessed as reduction in biofilm formation incubated for 24 hrs relative to control; assay type: functional; design: scale not given: the % may be the effect or the level left
Pseudomonas aeruginosa [25] = assay: Anti-virulence activity in Pseudomonas aeruginosa PAO1 assessed as reduction in pyoverdine production at 160 ug/ml by absorbance based analysis relative to control; assay type: functional; design: scale not given: the % may be the effect or the level left; conditions: dose 160 µg/ml
Pseudomonas aeruginosa [26] = assay: Antivirulence activity in Pseudomonas aeruginosa PAO1 assessed as reduction in pyocyanin production at 10 uM incubated for 24 hrs by absorbance based analysis relative to control; assay type: functional; design: scale not given: the % may be the effect or the level left
Pseudomonas aeruginosa [27] = assay: Anti-virulence effect in Pseudomonas aeruginosa PAO1 assessed as inhibition of rhamnolipid production at 10 uM relative to control; assay type: functional; design: scale not given: the % may be the effect or the level left
Pseudomonas aeruginosa [28] = assay: Antibiofilm activity against Pseudomonas aeruginosa ATCC 27853 assessed as inhibition of biofilm formation at 8 microg/ml incubated for 24 hrs by crystal violet staining based analysis relative to control; assay type: functional; design: scale not given: the % may be the effect or the level left; conditions: dose 8 µg/ml
Pseudomonas aeruginosa [29] = assay: Antibiofilm activity against Pseudomonas aeruginosa PA14 assessed as reduction in biofilm formation; assay type: functional
Pseudomonas aeruginosa [30] = assay: Downregulation of lasB mRNA expression in Pseudomonas aeruginosa PAO1 at 160 ug/ml incubated for 6 hrs by RT-qPCR analysis relative to control; assay type: functional; conditions: dose 160 µg/ml
Pseudomonas aeruginosa [31] = assay: Downregulation of rhlR mRNA expression in Pseudomonas aeruginosa PAO1 at 160 ug/ml incubated for 6 hrs by RT-qPCR analysis relative to control; assay type: functional; conditions: dose 160 µg/ml
Pseudomonas aeruginosa [32] = assay: Downregulation of lasI mRNA expression in Pseudomonas aeruginosa PAO1 at 16 ug/ml relative to control; assay type: functional; conditions: dose 16 µg/ml
Pseudomonas aeruginosa [33] = assay: Antibacterial activity against Pseudomonas aeruginosa PAO1 assessed as bacterial growth inhibition after 24 hrs by liquid microdilution method; assay type: functional
Pseudomonas aeruginosa [34] = assay: Downregulation of lasA mRNA expression in Pseudomonas aeruginosa PAO1 at 160 ug/ml incubated for 6 hrs by RT-qPCR analysis relative to control; assay type: functional; conditions: dose 160 µg/ml
Pseudomonas aeruginosa [35] = assay: Downregulation of rhlI mRNA expression in Pseudomonas aeruginosa PAO1 at 160 ug/ml incubated for 6 hrs by RT-qPCR analysis relative to control; assay type: functional; conditions: dose 160 µg/ml
Pseudomonas aeruginosa [36] = assay: Downregulation of lasR mRNA expression in Pseudomonas aeruginosa PAO1 at 16 ug/ml relative to control; assay type: functional; conditions: dose 16 µg/ml

Compound: O=C(O)CCc1ccc(O)c(O)c1 [DIHYDROCAFFEIC ACID]
Activity (Pseudomonas aeruginosa [1]): 19.82%

MIC (Pseudomonas aeruginosa [2]): 45 µg/mL (≈ 177 µM)
Compound: O=c1c(-c2ccc(O)cc2)coc2cc(O)ccc12 [DAIDZEIN]

Compound: N#CCc1ccc(OC[C@H](O)Cn2cnc3ccc(Cl)cc3c2=O)cc1
IC50 (Pseudomonas aeruginosa [3]): 4.3 µM
Activity (Pseudomonas aeruginosa [4]): 52%
IC50 [5]: 1 µM
Activity (Pseudomonas aeruginosa [6]): 80%

Compound: O=C(/C=C/c1ccc(O)c(O)c1)OCCc1ccc(Cl)cc1
Activity (Pseudomonas aeruginosa [1]): 30.41%

IC50 (Pseudomonas aeruginosa [7]): 0.4 µM
Compound: CCn1ccnc1

MIC (Pseudomonas aeruginosa [8]): > 512 µg/mL
IC50 (Pseudomonas aeruginosa [9]): 45.5 µg/mL (≈ 132 µM)
Compound: COc1ccc(C(=O)CSc2nc3ccccc3s2)c(OC)c1

Compound: Cc1nc2cccc(Br)c2c(=O)n1/N=C/c1ccc(O)cc1
MIC (Pseudomonas aeruginosa [10]): > 50 µM
Activity (Pseudomonas aeruginosa [11]): 99.5%
Activity (Pseudomonas aeruginosa [12]): 25%

Compound: O=C(O)/C=C/c1ccc(O)c(O)c1 [CAFFEIC ACID]
Activity (Pseudomonas aeruginosa [1]): 33%

inhibition [13]: 41%
Compound: CCCCC/C=C\C/C=C\CCCCCCCC(=O)O

MIC (Pseudomonas aeruginosa [2]): 0.48 µg/mL (≈ 1.69 µM)
Compound: COc1ccc(-c2coc3cc(O)cc(O)c3c2=O)cc1 [BIOCHANIN]

MIC (Pseudomonas aeruginosa [14]): 5 µM (≈ 1.75 µg/mL)
Compound: O=C(CN[C@H]1CCOC1=O)Nc1ccc(C/C=C/c2ccccc2)cc1

inhibition [16]: 67.8%
Compound: CC1=C(/C=C/C(C)=C/C=C/C(C)=C/C=C/C=C(C)/C=C/C=C(C)/C=C/C2=C(C)C[C@@H](O)CC2(C)C)C(C)(C)C[C@H](O)C1 [ZEAXANTHIN]
Activity (Pseudomonas aeruginosa [15]): 43%

Compound: COc1ccc([C@H](CNC(=O)Nc2ccccc2F)c2c[nH]c3ccccc23)cc1OC
Activity (Pseudomonas aeruginosa [17]): 66.4%
Activity (Pseudomonas aeruginosa [18]): 90%
Activity (Pseudomonas aeruginosa [11]): 74.27%
Activity (Pseudomonas aeruginosa [19]): 67.32%
MIC (Pseudomonas aeruginosa [20]): 500 µM (≈ 217 µg/mL)
Activity (Pseudomonas aeruginosa [21]): 90%

Compound: Oc1ccc2c(c1)OC[C@](O)(Cc1ccc(O)c(O)c1)[C@H]2O [SAPPANOL]
Activity (Pseudomonas aeruginosa [22]): 54.26%

Compound: Oc1ccc([C@H]2Oc3cc(O[C@H]4OC[C@@H](O)[C@@H](O)[C@@H]4O)cc(O)c3C[C@H]2O)cc1O
Activity (Pseudomonas aeruginosa [22]): 66%

MIC (Pseudomonas aeruginosa [2]): 0.48 µg/mL (≈ 1.78 µM)
Compound: O=c1cc(-c2ccc(O)cc2)oc2cc(O)cc(O)c12 [APIGENIN]

MIC (Pseudomonas aeruginosa [14]): 5 µM (≈ 2.1 µg/mL)
Compound: O=C(CN[C@H]1CCOC1=O)Nc1ccc(C/C=C/c2ccc(Cl)c(Cl)c2)cc1

Compound: COP(=O)(NCCCCOc1cc(O)c2c(=O)cc(-c3ccccc3)oc2c1)OC
IC50 (Pseudomonas aeruginosa [23]): 100 µM

Compound: O=C1c2ccc(NS(=O)(=O)c3ccc(Cl)cc3)cc2OC2C=C(O)C=C(O)C12 (centres undefined)
Activity (Pseudomonas aeruginosa [24]): 50%
IC50 (Pseudomonas aeruginosa [23]): 100 µM

Compound: CCCCCCCCn1ccnc1
IC50 (Pseudomonas aeruginosa [7]): 0.74 µM
Activity (Pseudomonas aeruginosa [25]): 88%
Activity (Pseudomonas aeruginosa [26]): 97.37%

Compound: CCCCCCn1ccnc1
Activity (Pseudomonas aeruginosa [25]): 60%
Activity (Pseudomonas aeruginosa [26]): 97%

Compound: c1cc2c(cc1[C@H]1OC[C@H]3[C@@H]1CO[C@@H]3c1ccc3c(c1)OCO3)OCO2 [SESAMIN]
Activity (Pseudomonas aeruginosa [27]): 51.31%
Activity (Pseudomonas aeruginosa [11]): 87%
Activity (Pseudomonas aeruginosa [28]): 92%
MIC (Pseudomonas aeruginosa [29]): 75 µg/mL (≈ 212 µM)

Compound: O=C/C=C/c1ccccc1
Activity (Pseudomonas aeruginosa [30]): 28%
IC50 (Pseudomonas aeruginosa [7]): 2.29 µM
Activity (Pseudomonas aeruginosa [31]): 99%
Activity (Pseudomonas aeruginosa [32]): 86%
MIC (Pseudomonas aeruginosa [33]): 11.3 µM (≈ 1.5 µg/mL)
Activity (Pseudomonas aeruginosa [34]): 65%
Activity (Pseudomonas aeruginosa [35]): 70%
Activity (Pseudomonas aeruginosa [36]): 98.56%
